{"source": "patent US20190269666A1", "about": "“COMBINATION THERAPY WITH MERESTINIB AND ANTI-PD-L1 OR ANTI-PD-1 INHIBITORS FOR USE IN THE TREATMENT OF CANCER” (Eli Lilly and Company, priority 2016, published 2019)", "test_system": "CT26 colorectal cancer model", "assay": "Study S082015: single agent merestinib in CT26 syngeneic mouse tumor model", "assay_type": "in vivo", "conditions": "for Body weight change from baseline (%) / T/C %: Day 26", "experimental": "A syngeneic mouse tumor model is used to evaluate potential combination effect of merestinib and anti-PD-L1 antibody is the CT26 colorectal cancer model using the mouse colorectal cancer line CT26. This experiment is conducted in immune competent mice (Grosso and Jure-Kunkel, Cancer Immunity Vol. 13, p. 5, January 2013; Duraiswamy et al, Cancer Research, Jun. 15, 2013 73; 3591.). Anti-PD-L1 antibody surrogate (178G7, LSN3370181) (Eppihimer et al. Microcirculation 2002:9(2):133) is used in the mouse study.\nFemale BALB/c mice (18-20 gm) from Envigo (Harlan Laboratories) are used for this study. Food and water are available ad libitum. Animals are acclimated for one week prior to any experimental manipulation. The study is performed in accordance with AALAC accredited institutional guidelines.\nMerestinib is formulated as a solution in 10% PEG 400 in 90% (20% Captisol in water) once weekly. Anti-PD-L1 antibody (178G7, LSN3370181) is formulated in PBS (phosphate buffered saline).\nCT26 cells (from internal in vivo pharmacology cell culture group lot CT26.WT.3184878) are used for implantation. Approximately 1×10^6 cells in HBSS are implanted subcutaneously into the right hind flank of the animal under anesthesia.\nStudy S082015 has four groups: 1) vehicle control (10% PEG 400 in 90% [20% Captisol in water]) dosed orally once daily for 21 days; 2) single agent merestinib at 6 mg/kg once daily orally for 21 days; 3) single agent merestinib at 12 mg/kg once daily orally for 21 days; 4) single agent merestinib at 24 mg/kg once daily orally for 21 days. Dosing of merestinib is initiated at Day 6 post-implant of the CT26 cells. There are 15 animals per group. Five animals per group are taken down on Day 13 and on Day 20 post-implant of CT26 cells for the harvesting of spleens and tumors for the interrogation of the effect of merestinib on immune functions. Five animals per group remain to the end of the study (Day 26). Tumor volumes and body weight are measured bi-weekly. Tumor volume is estimated by using the formula: v=l×w2×0.536 where l=larger of measured diameter and w=smaller of perpendicular diameter. At the end of the study, animals are sacrificed using CO2 and cervical dislocation.\nTumor volume is transformed to the log scale to equalize variance across time and treatment groups. The log volume data are analyzed with a two-way repeated measures analysis of variance by time and treatment using the MIXED procedures in SAS software (Version 9.3). The correlation model for the repeated measures is spatial power. Treated groups are compared to the control group at each time point. The MIXED procedure is also used separately for each treatment group to calculate least squares means and standard errors at each time point. Both analyses account for the autocorrelation within each animal and the loss of data that occurs when animals are removed or lost before Day 33."}
{"smiles": "Cc1ccc(C(=O)Nc2ccc(Oc3cc4cnn(C)c4cc3-c3cn[nH]c3)c(F)c2)c(=O)n1-c1ccc(F)cc1", "note": "[merestinib, N-(3-fluoro-4-(1-methyl-6-(1H-pyrazol-4-yl)-1H-indazol-5-yloxy)phenyl)-1-(4-fluorophenyl)-6-methyl-2-oxo-1,2-dihydropyridine-3-carboxamide]", "values": [{"measurement": "Body weight change from baseline (%)", "setting": "6 mg/kg once daily orally", "value": 5.7, "unit": "%"}, {"measurement": "T/C %", "setting": "6 mg/kg once daily orally", "value": 52.8, "unit": "%"}, {"measurement": "Body weight change from baseline (%)", "setting": "12 mg/kg once daily orally", "value": 3.4, "unit": "%"}, {"measurement": "T/C %", "setting": "12 mg/kg once daily orally", "value": 34.8, "unit": "%"}, {"measurement": "anti-tumor effect", "setting": "24 mg/kg dose", "value": "tumor stasis"}, {"measurement": "Body weight change from baseline (%)", "setting": "24 mg/kg once daily orally", "value": 3.0, "unit": "%"}, {"measurement": "T/C %", "setting": "24 mg/kg once daily orally", "value": 13.4, "unit": "%"}, {"measurement": "anti-tumor effect as compared to vehicle control", "setting": "6, 12, 24 mg/kg once daily orally", "value": "significant anti-tumor effect"}, {"measurement": "tolerability", "setting": "all three doses (6, 12, 24 mg/kg), no significant loss in body weight", "value": "well tolerated"}]}
